EPA's ToxValDB 9.5 (doi:10.2903/j.efsa.2020.5986)

Experiments:
Colinus virginianus = settings: oral
Oncorhynchus mykiss = settings: acute; duration: 96 hours; mortality
Rattus norvegicus = settings: acute; oral; mortality
Daphnia magna = settings: chronic/long-term; duration: 21 days; reproduction
Hypoaspis aculeifer = settings: acute; duration: 14 days; mortality
Danio rerio = settings: subchronic; duration: 30 days; growth
Apis mellifera = settings: acute, mortality
Tagia sp. = settings: chronic/long-term; mortality

SMILES: CC(C)=CCC/C(C)=C/CC/C(C)=C/CO [Farnesol]
- LD50 (Colinus virginianus; acute, mortality): > 2000 mg/kg-day
- NOEC (Colinus virginianus; reproduction developmental, diet): ≥ 111 mg/kg-day
- LC50 (Oncorhynchus mykiss): > 0.134 µg/mL
- LC50 (Rattus norvegicus): > 2000 mg/kg-day
- NOEC (Daphnia magna): 3 mg/L
- NOEC (Hypoaspis aculeifer): 1000 mg/kg
- NOEC (Danio rerio): ≥ 0.138 mg/L
- LD50 (Apis mellifera; dermal): > 100 µg/piece
- LD50 (Apis mellifera; oral, unspecified): > 100 µg/piece
- NOEC (Tagia sp.): ≥ 1000 mg/kg
